{
  "source": "patent US7510852B2",
  "about": "“Biosynthetic genes and host cells for the synthesis of polyketide antibiotics and method of use” (priority 2002, dated 2009)",
  "key": {"[1]": {"tested_on": "E. coli DH5αKT clones that spontaneously grew within the growth inhibition zone of a pALB571-pOp3-4/XALB2-3 exconjugant", "experiment": "Cross-resistance test: albicidin production assay with X. albilineans Xa23R1", "type": "cell-based, Escherichia coli", "conditions": "albicidin produced by X. albilineans Xa23R1; two clones as tester strains", "procedure": "Assay of albicidin production. Albicidin production was tested by a microbiological assay as described previously (Rott et al., 1996). Rifampicin and kanamycin exconjugants were spotted with sterile toothpicks (2-mm-diameter spots) onto plates of SPA medium (2% sucrose, 0.5% peptone, 1.5% agar) and incubated at 28° C. for 2-5 days. The plates were then overlaid with a mixture of E. coli DH5α (10^7 cells in 2 ml of distilled water) plus 2 ml of molten 1.5% (wt/vol) Noble agar (Difco) at ca. 65° C. and examined for inhibition zones after 24 h at 37 C.\nTwo E. coli DH5αKT clones, that spontaneously grew within the growth inhibition zone of a X. axonopodis pv. vesicatoria pALB571-pOp3-4/XALB2-3 exconjugant on SPA+tetracycline medium, were isolated and tested for resistance to albicidin. […] Comparison of chemical characteristics of the two molecules will, however, be necessary to confirm that the two molecules are identical."}, "proteases": {"tested_on": "proteases", "conditions": "Birch and Patil, 1985a; cited from earlier work"}, "[2]": {"tested_on": "gram-positive and gram-negative bacteria", "conditions": "range of gram-positive and gram-negative bacteria; Birch and Patil, 1985a; cited from earlier work"}, "[3]": {"tested_on": "chloroplast DNA replication", "conditions": "Birch and Patil, 1983-1987; cited from earlier work"}, "[4]": {"tested_on": "prokaryotic DNA replication", "conditions": "Birch and Patil, 1985a; cited from earlier work"}},
  "data": [
    {"substance": "albicidin", "values": [
      {"measurement": "growth inhibition of clones resistant to the albicidin-like product", "setting": "[1]", "value": "No growth inhibition"},
      {"measurement": "sensitivity to proteases", "setting": "proteases", "value": "insensitive to proteases"},
      {"measurement": "bactericidal activity", "setting": "[2]", "value": "bactericidal"},
      {"measurement": "effect on chloroplast DNA replication", "setting": "[3]", "value": "inhibits chloroplast DNA replication"},
      {"measurement": "effect on prokaryotic DNA replication", "setting": "[4]", "value": "inhibits prokaryotic DNA replication"}
    ]}
  ]
}
